Here are results for eleven molecules from patent US20230365592A1 (Agios Pharmaceuticals, Inc., priority 2022, published 2023).

This assay has as its target T1, human PAH with the R408W mutation (Homo sapiens, UniProt P00439, R408W).
T1 construct: expressed in transfected cells
T1 sequence (P00439 1-452 R408W): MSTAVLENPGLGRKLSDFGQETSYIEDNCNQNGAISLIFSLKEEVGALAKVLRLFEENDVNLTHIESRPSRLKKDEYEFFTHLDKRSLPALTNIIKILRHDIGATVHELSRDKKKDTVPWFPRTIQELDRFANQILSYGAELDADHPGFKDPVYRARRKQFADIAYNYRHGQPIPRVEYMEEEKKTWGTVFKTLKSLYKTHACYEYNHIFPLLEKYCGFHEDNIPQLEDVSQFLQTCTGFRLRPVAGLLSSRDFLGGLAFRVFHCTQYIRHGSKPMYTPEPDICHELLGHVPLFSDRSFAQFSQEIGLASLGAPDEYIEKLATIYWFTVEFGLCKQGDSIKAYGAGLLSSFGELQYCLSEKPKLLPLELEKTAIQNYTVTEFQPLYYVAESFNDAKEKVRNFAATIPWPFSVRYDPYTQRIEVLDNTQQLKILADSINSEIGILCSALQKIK
Briefly: Cell Based Phenylalanine Flux Assay.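 Further: after compound treatment, cells received sepiapterin plus isotope-labelled Phenylalanine for 4 hours, then labelled Tyrosine in the medium was quantified, 10-point 2-fold dilution series run in duplicate.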 Conditions: A375 cells expressing human PAH R408W; 24 hrs compound incubation; 13C-Tyrosine by LC-MS; average where tested multiple times; read-out: AC50.
What is called AC50 is the concentration at which the activity in the assay is half-maximal. Regarding `Cc1cc(-c2nnc(C(=O)N3CCc4[nH]cnc4[C@H]3c3cc4c(C(C)C)cccn4n3)o2)nn1C` [Example 2007, (S)-(5-(1,5-dimethyl-1H-pyrazol-3-yl)-1,3,4-oxadiazol-2-yl)(4-(4-isopropylpyrazolo[1,5-a]pyridin-2-yl)-1,4,6,7-tetrahydro-5H-imidazo[4,5-c]pyridin-5-yl)methanone], the concentration at half-maximal activity (AC50) is below 500 nM. In the case of `Fc1ccc(-c2nnc(N3CCc4[nH]cnc4[C@H]3c3cc4c(Cl)cccn4n3)o2)cc1` [Example 2009, (S)-2-(4-(4-chloropyrazolo[1,5-a]pyridin-2-yl)-1,4,6,7-tetrahydro-5H-imidazo[4,5-c]pyridin-5-yl)-5-(4-fluorophenyl)-1,3,4-oxadiazole], the AC50 was below 500 nM. The value for `Cc1cccc2cc([C@@H]3c4nc[nH]c4CCN3c3nnc(-c4ccc(F)cc4)o3)nn12` [Example 2010, (S)-2-(4-fluorophenyl)-5-(4-(7-methylpyrazolo[1,5-a]pyridin-2-yl)-1,4,6,7-tetrahydro-5H-imidazo[4,5-c]pyridin-5-yl)-1,3,4-oxadiazole] was below 500 nM. Under `Cc1cccc2cc([C@H]3c4nc[nH]c4CCN3c3nnc(-c4ccc(F)cc4)o3)nn12` [Example 2011, (R)-2-(4-fluorophenyl)-5-(4-(7-methylpyrazolo[1,5-a]pyridin-2-yl)-1,4,6,7-tetrahydro-5H-imidazo[4,5-c]pyridin-5-yl)-1,3,4-oxadiazole] stands above 5000 nM; under `FC(F)(F)c1ccc(N2CCc3[nH]cnc3[C@H]2c2cc3c(C(F)(F)F)cccn3n2)nc1` [Example 2013, (S)-4-(4-(trifluoromethyl)pyrazolo[1,5-a]pyridin-2-yl)-5-(5-(trifluoromethyl)pyridin-2-yl)-4,5,6,7-tetrahydro-1H-imidazo[4,5-c]pyridine], below 500 nM. Under `O=C(c1ocnc1C1CC1)N1CCc2[nH]cnc2[C@H]1c1cc2c(C(F)(F)F)cccn2n1` [Example 2014, (S)-(4-cyclopropyloxazol-5-yl)(4-(4-(trifluoromethyl)pyrazolo[1,5-a]pyridin-2-yl)-1,4,6,7-tetrahydro-5H-imidazo[4,5-c]pyridin-5-yl)methanone] stands below 500 nM; under `Cn1ccc(-c2nnc(C(=O)N3CCc4[nH]cnc4[C@H]3c3cc4ccccn4n3)s2)n1` [Example 2016, (S)-(5-(1-methyl-1H-pyrazol-3-yl)-1,3,4-thiadiazol-2-yl)(4-(pyrazolo[1,5-a]pyridin-2-yl)-1,4,6,7-tetrahydro-5H-imidazo[4,5-c]pyridin-5-yl)methanone], below 500 nM; under `Cn1ccc(-c2nnc(C(=O)N3CCc4[nH]cnc4[C@@H]3c3cc4ccccn4n3)s2)n1` [Example 2017, (R)-(5-(1-methyl-1H-pyrazol-3-yl)-1,3,4-thiadiazol-2-yl)(4-(pyrazolo[1,5-a]pyridin-2-yl)-1,4,6,7-tetrahydro-5H-imidazo[4,5-c]pyridin-5-yl)methanone], above 5000 nM. As to `Cn1cc(-c2nnc(C(=O)N3CCc4[nH]cnc4[C@H]3c3cc4c(F)cccn4n3)s2)cn1` [Example 2018, (S)-(4-(4-fluoropyrazolo[1,5-a]pyridin-2-yl)-1,4,6,7-tetrahydro-5H-imidazo[4,5-c]pyridin-5-yl)(5-(1-methyl-1H-pyrazol-4-yl)-1,3,4-thiadiazol-2-yl)methanone], the AC50 is below 500 nM.

For the molecule `Cn1cc(-c2nnc(C(=O)N3CCc4[nH]cnc4[C@@H]3c3cc4c(F)cccn4n3)s2)cn1` [Example 2019, (R)-(4-(4-fluoropyrazolo[1,5-a]pyridin-2-yl)-1,4,6,7-tetrahydro-5H-imidazo[4,5-c]pyridin-5-yl)(5-(1-methyl-1H-pyrazol-4-yl)-1,3,4-thiadiazol-2-yl)methanone], the half-maximal activity concentration (AC50) is above 5000 nM. With `Cc1cccn2nc([C@@H]3c4nc[nH]c4CCN3C(=O)c3nc4ccccc4o3)cc12` [Example 2020, (S)-benzo[d]oxazol-2-yl(4-(4-methylpyrazolo[1,5-a]pyridin-2-yl)-1,4,6,7-tetrahydro-5H-imidazo[4,5-c]pyridin-5-yl)methanone], the AC50 is below 500 nM.
